Measured values from US20230145764A1, “BLOOD-BASED TUMOR MUTATION BURDEN PREDICTS OVERALL SURVIVAL IN NSCLC” (MEDIMMUNE, LLC, priority 2018, published 2023).

Legend:
human CTLA-4 = target: T1, human CTLA-4 (Homo sapiens, UniProt P16410); conditions: specific for human CTLA-4; cited from earlier work
T1 sequence (P16410 36-223): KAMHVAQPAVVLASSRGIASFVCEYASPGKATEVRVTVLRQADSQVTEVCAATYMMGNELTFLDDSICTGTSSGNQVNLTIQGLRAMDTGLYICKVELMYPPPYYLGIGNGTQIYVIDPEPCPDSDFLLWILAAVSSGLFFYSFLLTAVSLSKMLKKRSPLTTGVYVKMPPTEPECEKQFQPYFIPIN

Fc receptors = conditions: cited from earlier work
[1] = test system: natural killer (NK) ADCC activity; conditions: cited from earlier work
metastatic NSCLC [2] = assay: MYSTIC phase 3 study, efficacy (OS, PFS, tumor response) in ITT population and PD-L1 expression subgroups; type: in vivo, human; conditions: for ORR, %: BICR per RECIST v1.1
Excerpt: Adult patients with Stage IV NSCLC were eligible provided they had not previously received systemic therapy for advanced/metastatic NSCLC, had Eastern Cooperative Oncology Group performance status 0-1, measurable disease according to Response Evaluation Criteria in Solid Tumors version 1.1 (RECIST v1.1) (Chaft et al., Cancer Res. 78(13 Suppl) (abstr. CT113) (2018)), and known tumor PD-L1 expression status prior to randomization. Patients with sensitizing EGFR mutations or ALK rearrangements, and those with symptomatic, unstable brain metastases were excluded.
(§1) Patients continued treatment until objective disease progression (according to RECIST v1.1), development of an adverse event (AE) that necessitated treatment discontinuation, or withdrawal of consent.
Investigation of the relationship between biomarkers, including TMB, and clinical outcomes were also determined.
PD-L1 expression was evaluated using multiple cut-offs at a central laboratory using the VENTANA PD-L1 (SP263) immunohistochemistry (IHC) assay (Ventana Medical Systems, Tucson, Ariz., USA) (Rebelatto et al., Diagn. Pathol. 11(1): 95 (2016)). Tumor samples obtained within 3 months prior to screening were permitted.
(§2) Tumor response was assessed by BICR using RECIST v1.1, with imaging performed every 6 weeks for the first 48 weeks, then every 8 weeks, until confirmed disease progression. Patients were followed for survival. AEs were graded according to National Cancer Institute Common Terminology Criteria for Adverse Events version 4.03.
(§3) Efficacy was analyzed on an intention-to-treat (ITT) basis, including all randomized patients or subsets of this population based on PD-L1 expression or TMB levels. Safety analyses included all patients who received at least one dose of study treatment (as-treated population).
To control the type I error at 5% (two-sided), a hierarchical multiple testing procedure with gatekeeping strategy was used across endpoints, analysis populations, and treatment regimens. The primary PFS analysis was performed using a stratified log-rank test adjusting for histology, with hazard ratio (HR) and 99.5% confidence interval (CI) estimated using a Cox proportional hazards model. […] Survival curves were generated using the Kaplan-Meier method.
(§4) Odds ratios and 95% CI for comparing ORR between treatment groups were calculated using a logistic regression model, adjusted for the same factors as PFS and OS. Prespecified TMB analysis was performed using an unstratified log-rank test, with HRs and 95% Cis estimated using a Cox proportional hazards model.

metastatic NSCLC [3] = assay: MYSTIC phase 3 study, efficacy by blood TMB (GuardantOMNI) or tissue TMB (FoundationOne) subgroup; type: in vivo, human
Experimental: as §1
Blood TMB was evaluated using the GuardantOMNI next-generation sequencing platform (Guardant Health, Redwood City, Calif., USA) comprised of 500 genes (FIG. 1).
The OMNI TMB algorithm incorporates somatic single nucleotide variants (SNVs), short insertions/deletions (indels), copy number amplifications and fusions, and is optimized to calculate TMB on blood samples with low cell-free circulating tumor DNA content (Merck Sharp & Dohme. Keytruda® (pembrolizumab) Summary of Product Characteristics. Updated March 2019. Available at: https://www.medicines.org.uk/emc/product/6947/smpc (last accessed May 1, 2019); Reck et al., N. Engl. J. Med. 375(19): 1823-33 (2016)). Both synonymous and nonsynonymous SNVs and indels were included, with removal of those with low shedding values, low diversity, and associations with clonal hematopoiesis, germline and oncogenic driver or drug resistance mechanisms. Tissue TMB was evaluated using the FoundationOne tissue next-generation sequencing platform (Foundation Medicine, Cambridge, Mass., USA). The algorithm has been described previously (Merck Sharp & Dohme. Keytruda® (pembrolizumab) prescribing information. Updated April 2019. Available at: https://www.merck.com/product/usa/pi_circulars/k/keytruda/keytruda_pi.pdf (last accessed May 1, 2019)).
as §3, §4

[4] = MYSTIC phase 3 study, safety (adverse events, as-treated population); conditions: in vivo
Experimental: as §1, §2, §3

mNSCLC = assay: MYSTIC ctDNA mutation analysis (STK11, KEAP1, ARID1A), overall survival by mutation status; type: in vivo, human
Experimental: This example investigated associations between selected mutations and survival outcomes. Circulating tumour DNA from baseline plasma specimens was profiled using the GuardantOMNI platform. Samples were available from 1003 patients (89.7% of ITT population). 943 samples were mutation-evaluable. Survival outcomes were analysed in patients with or without non-synonymous somatic mutations in STK11, KEAP1, or ARID1A, or KRAS.

PD-L1 = PD-L1 (Homo sapiens, UniProt Q9NZQ7); conditions: in vitro; cited from earlier work
xenograft model = conditions: via a T-cell dependent mechanism; cited from earlier work

Chain of PD-L1 (Q9NZQ7 19-290): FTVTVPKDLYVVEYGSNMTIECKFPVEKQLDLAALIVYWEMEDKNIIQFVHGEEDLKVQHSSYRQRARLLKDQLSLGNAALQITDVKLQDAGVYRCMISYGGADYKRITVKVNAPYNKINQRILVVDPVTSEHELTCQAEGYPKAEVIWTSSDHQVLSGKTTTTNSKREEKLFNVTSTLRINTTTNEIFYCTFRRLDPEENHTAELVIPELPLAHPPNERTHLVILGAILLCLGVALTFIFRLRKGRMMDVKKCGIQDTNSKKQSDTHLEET

Substance: tremelimumab
- cross-reactivity to related human proteins (human CTLA-4): no cross-reactivity
- specific binding to Fc receptors (Fc receptors): minimal specific binding
- induction of natural killer (NK) ADCC activity [1]: does not induce

Substance: durvalumab
- Hazard ratio (95% CI) for death compared with chemotherapy (metastatic NSCLC [2]; ITT population): 0.96
- Median overall survival, months (95% CI) (metastatic NSCLC [2]; ITT population): 12.3 months
- Hazard ratio (95% CI) for death compared with chemotherapy (metastatic NSCLC [2]; PD-L1 TC <1%): 1.18
- Median overall survival, months (95% CI) (metastatic NSCLC [2]; PD-L1 TC <1%): 10.1 months
- Hazard ratio (95% CI) for death compared with chemotherapy (metastatic NSCLC [2]; PD-L1 TC ≥1%): 0.88
- Median overall survival, months (95% CI) (metastatic NSCLC [2]; PD-L1 TC ≥1%): 14.6 months
- 24-month OS rate (metastatic NSCLC [2]; PD-L1 TC ≥25%): 38.3%
- Best objective response, Complete response, % (metastatic NSCLC [2]; PD-L1 TC ≥25%): (0.6) %
- Best objective response, Not evaluable, % (metastatic NSCLC [2]; PD-L1 TC ≥25%): (1.2) %
- Best objective response, Partial response, % (metastatic NSCLC [2]; PD-L1 TC ≥25%): (35.0) %
- Best objective response, Progressive disease, % (metastatic NSCLC [2]; PD-L1 TC ≥25%): (32.5) %
- Best objective response, Stable disease ≥ 6 weeks, % (metastatic NSCLC [2]; PD-L1 TC ≥25%): (30.7) %
- HR for death vs. chemotherapy (metastatic NSCLC [2]; PD-L1 TC ≥25%): 0.76
- Remaining in response (%) at 6 months (metastatic NSCLC [2]; PD-L1 TC ≥25%): 66.9%
- Remaining in response (%) at 12 months (metastatic NSCLC [2]; PD-L1 TC ≥25%): 61.3%
- difference in PFS versus chemotherapy group (metastatic NSCLC [2]; PD-L1 TC ≥25%): no statistically significant difference
- median OS (metastatic NSCLC [2]; PD-L1 TC ≥25% (primary analysis population)): 16.3 months
- ORR, % (metastatic NSCLC [2]; PD-L1 TC ≥25%): 35.6%
- ORR, % (metastatic NSCLC [2]; PD-L1 TC ≥25%, listed as Durvalumab Monotherapy): (35.6) %
- Median DOR, months (95% CI) (metastatic NSCLC [2]; PD-L1 TC ≥25%, Kaplan-Meier, NR = not reached): NR (9.7-NR)
- Hazard ratio (95% CI) for death compared with chemotherapy (metastatic NSCLC [2]; PD-L1 TC ≥25-49%): 0.78
- Median overall survival, months (95% CI) (metastatic NSCLC [2]; PD-L1 TC ≥25-49%): 11.1 months
- Hazard ratio (95% CI) for death compared with chemotherapy (metastatic NSCLC [2]; PD-L1 TC ≥50%): 0.76
- Median overall survival, months (95% CI) (metastatic NSCLC [2]; PD-L1 TC ≥50%): 18.3 months
- Estimated odds ratio vs. chemotherapy (95% CI) (metastatic NSCLC [2]; in vivo): 0.91
- Number of events/patients (metastatic NSCLC [2]; overall survival, ITT population): 278/374
- Number of patients (metastatic NSCLC [2]; overall survival, PD-L1 TC <1%): 84/95
- Number of patients (metastatic NSCLC [2]; overall survival, PD-L1 TC ≥1%): 194/279
- Number of patients (metastatic NSCLC [2]; overall survival, PD-L1 TC ≥25-49%): 33/45
- Number of patients (metastatic NSCLC [2]; overall survival, PD-L1 TC ≥50%): 75/118
- ORR, % (metastatic NSCLC [3]; Blood TMB <20 mut/Mb): (20.6) %
- Remaining in response (%) at 6 months (metastatic NSCLC [3]; Blood TMB <20 mut/Mb): 64.0%
- Remaining in response (%) at 12 months (metastatic NSCLC [3]; Blood TMB <20 mut/Mb): 59.1%
- ORR, % (metastatic NSCLC [3]; Blood TMB ≥20 mut/Mb): (29.9) %
- Remaining in response (%) at 6 months (metastatic NSCLC [3]; Blood TMB ≥20 mut/Mb): 86.5%
- Remaining in response (%) at 12 months (metastatic NSCLC [3]; Blood TMB ≥20 mut/Mb): 80.3%
- HR for death versus chemotherapy (metastatic NSCLC [3]; Tissue TMB ≥10 mut/Mb): 0.70
- median OS (metastatic NSCLC [3]; Tissue TMB ≥10 mut/Mb): 18.6 months
- median OS (metastatic NSCLC [3]; bTMB ≥20 mut/Mb): 12.6 months
- unadjusted HR for death vs. chemotherapy (metastatic NSCLC [3]; bTMB ≥20 mut/Mb): 0.72
- All-grade treatment-related AEs (TRAEs), % of patients [4]: 54.2%
- Immune-mediated AEs of grade 3 or 4, % of patients [4]: 4.1%
- Immune-mediated AEs, % of patients [4]: 13.6%
- Rates of grade ≥3 TRAEs [4]: 14.9%
- TRAEs leading to discontinuation [4]: 5.4%
- Treatment-related deaths, % [4]: 0.5%
- Treatment-related deaths, patients [4]: 2 patients
- median OS (mOS) (mNSCLC; patients with ARID1Am): 8.6 months
- median OS (mOS) (mNSCLC; patients with ARID1Awt): 13.7 months
- median OS (mOS) (mNSCLC; patients with KEAP1m): 7.6 months
- median OS (mOS) (mNSCLC; patients with KEAP1wt): 14.6 months
- median OS (mOS) (mNSCLC; patients with STK11m): 10.3 months
- median OS (mOS) (mNSCLC; patients with STK11wt): 13.3 months
- PD-L1-mediated suppression of human T-cell activation (PD-L1): relieve PD-L1-mediated suppression
- tumor growth in a xenograft model (xenograft model): inhibits tumor growth
